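All cell lines were grown in 96-well plates and treated with compound for 48 hours. At the TGI there is no net growth.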
Key:
Experiment in all cases: growth of human tumour cells (NCI), 48 h
[1] = tested on: UO-31 renal
[2] = tested on: IGROV1 ovarian
[3] = tested on: T-47D breast
[4] = tested on: OVCAR-4 ovarian
[5] = tested on: UACC-257 melanoma
[6] = tested on: M14 melanoma
[7] = tested on: CAKI-1 renal
[8] = tested on: HL-60(TB) leukemia
[9] = tested on: OVCAR-3 ovarian
[10] = tested on: HT29 colon
[11] = tested on: MOLT-4 leukemia
[12] = tested on: HCT-116 colon
[13] = tested on: NCI-H23 lung
[14] = tested on: LOX IMVI melanoma
[15] = tested on: BT-549 breast
[16] = tested on: ACHN renal
[17] = tested on: NCI-H460 lung
[18] = tested on: DU-145 prostate
[19] = tested on: UACC-62 melanoma
[20] = tested on: TK-10 renal
[21] = tested on: SK-MEL-28 melanoma
[22] = tested on: SK-MEL-2 melanoma
[23] = tested on: SNB-19 CNS
[24] = tested on: SK-MEL-5 melanoma
[25] = tested on: RXF 393 renal
[26] = tested on: U251 CNS
[27] = tested on: HS 578T breast
[28] = tested on: KM12 colon
[29] = tested on: HOP-92 NSCLC
[30] = tested on: MDA-MB-435
[31] = tested on: EKVX NSCLC
[32] = tested on: SW-620 colon
[33] = tested on: SNB-75 CNS
[34] = tested on: A549 NSCLC
[35] = tested on: HCC-2998 colon
[36] = tested on: NCI/ADR-RES ovarian
[37] = tested on: HOP-62 NSCLC
[38] = tested on: COLO 205 colon
[39] = tested on: HCT-15 colon
[40] = tested on: OVCAR-5 ovarian
[41] = tested on: NCI-H226 lung
[42] = tested on: MALME-3M melanoma
[43] = tested on: RPMI-8226 leukemia
[44] = tested on: SF-295 CNS
[45] = tested on: A498 renal
[46] = tested on: PC-3 prostate
[47] = tested on: 786-0 renal
[48] = tested on: OVCAR-8 ovarian
[49] = tested on: MDA-MB-231 breast
[50] = tested on: SR leukemia
[51] = tested on: CCRF-CEM leukemia
[52] = tested on: SF-268 CNS
[53] = tested on: SK-OV-3 ovarian
[54] = tested on: K-562 leukemia
[55] = tested on: NCI-H522 lung

O=C1CNc2cc(N3CCN(c4ccccc4)CC3)ccc2N1
TGI [1]: > 100 µM
TGI [2]: > 100 µM
TGI [3]: > 100 µM
TGI [4]: > 100 µM
TGI [5]: > 100 µM
TGI [6]: > 100 µM
TGI [7]: > 100 µM
TGI [8]: > 100 µM
TGI [9]: > 100 µM
TGI [10]: > 100 µM
TGI [11]: > 100 µM
TGI [12]: > 100 µM
TGI [13]: > 100 µM
TGI [14]: > 100 µM
TGI [15]: > 100 µM
TGI [16]: > 100 µM
TGI [17]: > 100 µM
TGI [18]: > 100 µM
TGI [19]: > 100 µM
TGI [20]: > 100 µM
TGI [21]: > 100 µM
TGI [22]: > 100 µM
TGI [23]: > 100 µM
TGI [24]: > 100 µM
TGI [25]: > 100 µM
TGI [26]: > 100 µM
TGI [27]: > 100 µM
TGI [28]: > 100 µM
TGI [29]: > 100 µM
TGI [30]: > 100 µM
TGI [31]: > 100 µM
TGI [32]: > 100 µM
TGI [33]: > 100 µM
TGI [34]: > 100 µM
TGI [35]: > 100 µM
TGI [36]: > 100 µM
TGI [37]: > 100 µM
TGI [38]: > 100 µM
TGI [39]: > 100 µM
TGI [40]: > 100 µM
TGI [41]: > 100 µM
TGI [42]: > 100 µM
TGI [43]: > 100 µM
TGI [44]: > 100 µM
TGI [45]: > 100 µM
TGI [46]: > 100 µM
TGI [47]: > 100 µM
TGI [48]: > 100 µM
TGI [49]: > 100 µM
TGI [50]: > 100 µM
TGI [51]: > 100 µM
TGI [52]: > 100 µM
TGI [53]: > 100 µM
TGI [54]: > 100 µM
TGI [55]: > 100 µM

COc1ccc2c(c1)CC1Cc3cc(OC)c(OC)cc3CN1CC2 (stereo not given)
TGI [1]: > 100 µM
TGI [2]: > 100 µM
TGI [3]: > 100 µM
TGI [4]: > 100 µM
TGI [5]: > 100 µM
TGI [6]: > 100 µM
TGI [7]: > 100 µM
TGI [8]: 34.3 µM
TGI [9]: > 100 µM
TGI [10]: > 100 µM
TGI [11]: > 100 µM
TGI [12]: > 100 µM
TGI [13]: > 100 µM
TGI [14]: > 100 µM
TGI [15]: > 100 µM
TGI [16]: > 100 µM
TGI [17]: > 100 µM
TGI [18]: > 100 µM
TGI [19]: > 100 µM
TGI [20]: > 100 µM
TGI [21]: > 100 µM
TGI [22]: > 100 µM
TGI [23]: > 100 µM
TGI [24]: > 100 µM
TGI [25]: > 100 µM
TGI [26]: > 100 µM
TGI [27]: > 100 µM
TGI [28]: > 100 µM
TGI [29]: 67.2 µM
TGI [30]: > 100 µM
TGI [31]: > 100 µM
TGI [32]: > 100 µM
TGI [33]: > 100 µM
TGI [34]: > 100 µM
TGI [35]: > 100 µM
TGI [36]: > 100 µM
TGI [37]: > 100 µM
TGI [38]: > 100 µM
TGI [39]: > 100 µM
TGI [40]: > 100 µM
TGI [41]: > 100 µM
TGI [42]: > 100 µM
TGI [43]: > 100 µM
TGI [44]: > 100 µM
TGI [45]: > 100 µM
TGI [46]: > 100 µM
TGI [47]: > 100 µM
TGI [48]: > 100 µM
TGI [49]: > 100 µM
TGI [50]: 60.3 µM
TGI [51]: 89 µM
TGI [52]: > 100 µM
TGI [53]: > 100 µM
TGI [54]: > 100 µM
TGI [55]: > 100 µM

— PubChem BioAssay (NCI)
